These results are taken from patent publication US20240052305A1, “CHEMICAL INDUCTION METHOD FOR PHOTORECEPTOR NEURON CELLS” (IREGENE THERAPEUTICS LTD, priority 2020, published 2024).

Entries after “also recorded” stand apart in the source; their conditions may differ.

Data set [1] in a line: Osmotic pressure of the culture system by freezing point osmometer. Format: physicochemical. Set-up: osmotic pressure of the culture system: dose or concentration left out as unconfirmed. Here is the method: A screening culture system was prepared by using different concentration gradients of sodium chloride while maintaining the optimal concentration of other components. The effect of different concentrations of sodium chloride on the osmotic pressure of culture system was detected by using an automatic freezing point osmometer (FM-8P, Shanghai Medical University Instrument Co., Ltd.), and specific operations were performed according to the product manual (FM-8P, Shanghai Medical University Instrument Co., Ltd.).

For data set [2], the system named is human pluripotent stem cells. The experiment in a line: Chemical induction of ectoderm cells from pluripotent stem cells with different concentrations of LY2157299 (morphology, Q-PCR). In kind it is cell-based. Here is the method:
The ectoderm cell induction medium of the present invention was obtained by supplementing the NouvNeu-basal base medium with 55 nM-25 uM LY2157299 (Selleck) (with an optimal concentration of 7.5 uM) (preferably 100 nM, 300 nM, 500 nM, 700 nM, 900 nM, 1 uM, 2.5 uM, 5 uM, 7.5 uM, 10 uM, 12.5 uM, 15 uM, 17.5 uM, 20 uM or 22 uM). An induction method using said ectoderm cell induction medium was hereinafter referred to as a LY induction method.
Ectoderm cells were derived from human pluripotent stem cells, including embryogenic pluripotent stem cells, such as H9 cell line and human induced pluripotent stem cells. Human induced pluripotent stem cells were obtained by reprogramming from CD34+ cells according to “Reprogrammed culture medium and culture method of reprogrammed induced multipotential stem cell” (ZL 201910050800.7). In the present invention, “induced pluripotent stem cells” and “pluripotent stem cells” were used interchangeably.
During the induction of ectoderm cells, a 6-well culture plate was coated by using 50 ug/ml polylysine (SIGMA, P6407), and incubated in an incubator at 37° C. for more than 3 hours; then further coated by 5 ug/ml laminin (Laminin, I2020, SIGMA ALDRICH), and incubated in an incubator at 37° C. for more than 3 hours after plating. After the pluripotent stem cells reached 70% coverage, they were digested with EDTA at 37° C. for 5 min, and the cell digestion was terminated with DMEM. After washing and centrifugation, the cells were re-plated in the T25 culture plate at 2×10^5 cells per flask. The neural stem cell induction medium of the present invention was used for induction, and replaced with fresh induction medium every day until lamellar ectoderm cells were formed.
The effect of different concentrations of LY2157299 on the formation of ectoderm cells was detected by Q-PCR. The ectoderm cells obtained from the induced pluripotent stem cells in Example 2 by using different concentrations of LY2157299 in the LY induction method and LSB induction method were respectively extracted with RNeasy Mini or Micro Kit (QIAGEN) for total RNA, and cDNA was synthesized by […] RNA via SuperScript III First-Strand Synthesis System (Invitrogen). SYBR Premix Ex Taq (TaKaRa) and Thermal Cycler Dice Real Time System (TaKaRa) were used for labeling and reaction by Quantitative PCR, and beta-Actin was used as internal control. All data were analyzed by delta-Ct method. Triplicates were used for each group of experiments, and ANOVA was performed.

For data set [3], the system named is ectoderm cells. Kind of data set: Differentiation of the ectoderm cells into neural stem cells (neural rosettes, immunofluorescence, Q-PCR). Format: cell-based, human. Here is the method: Ectoderm cells could be further cultured to form neural stem cells. In order to identify this ability of ectoderm cells, the ectoderm cells obtained in Example 2.1 were further cultured in vitro by using a NouvNeu-basal base medium supplemented with 7.5 uM LY2157299 and 0.5-20 uM JW55 (with an optimal concentration of 5 uM) until a neural rosette-like structure was formed. The LSB induction method was used as a control. […]
Transcription changes of different marker genes during induction from ectoderm cells to neural stem cells were detected by Q-PCR. […] SYBR Premix Ex Taq (TaKaRa) and Thermal Cycler Dice Real Time System (TaKaRa) were used for labeling and reaction by Quantitative PCR, and beta-Actin was used as internal control. All data were analyzed by delta-Ct method. […]

Data set [4] deals with human pluripotent stem cells. The experiment in a line: Cyquant cell viability assay during ectoderm induction, long-term culture. In kind it is cell-based. The settings on record: for number of cells induced versus concentration: Cyquant test, FIGS. 6c-6d. Here is the method:
A screening culture system was prepared by using different concentration gradients of insulin or vitamin C while maintaining the optimal concentration of other components. Ectoderm induction was performed according to the method in Example 2.1. The cell viability was quantitatively detected by Cyquant assay to study the effects of insulin or vitamin C on the physiological state of cells during long-term cell culture. A 96-well opaque cell culture plate was coated, and then the cells are inoculated at 5×10^4 cells per well, wherein parallel triplicates were set up (the average of the three groups was calculated as the data). The steps in Example 2.1 were repeated with the culture conditions of 37° C., 5% CO2. Samples were taken at day 1, day 5, day 10 and day 20, respectively, and the cell viability detection was carried out by CyQuant Kit (Invitrogen, X12223) according to the instruction manual, and data were read by SpectraMax i3 Multi-Mode Microplate Reader (VWR, ID3-STD). […] Therefore, in combination with cost factors, the insulin or vitamin C in the basal medium of the present invention was the optimal concentration.

For the next data set, the system named is photoreceptor cells. Kind of data set: Cyquant cell viability assay during induction of photoreceptor cells. In kind it is cell-based, human. The settings on record: Cyquant test, FIGS. 6e-6g. The text has this:
The Cyquant test was also used to detect the effect of progesterone, putrescine and Optiferrin on cell viability, so as to study the effects of different concentrations of progesterone, putrescine and Optiferrin on the physiological state of cells during the induction of photoreceptor cells.

The test system of data set [5] is ectoderm cells. Kind of data set: Differentiation of ectoderm cells into photoreceptor neuron cells with AM580 (morphology, Q-PCR, immunofluorescence). In kind it is cell-based, human. Here is the method:
The ectoderm cells obtained by the NouvNeu system in Example 2 were subjected to directed differentiation in NouvNeu medium. For differentiation, a 6-well culture plate was coated by 50 ug/ml poly-lysine (SIGMA, P6407), incubated in an incubator at 37° C. for more than 3 hours until cells were seeded.
The photoreceptor neuron cell induction medium of the present invention was obtained by supplementing the NouvNeu-basal base medium with 55 nM-25 uM LY2157299 (with an optimal concentration of 7.5 uM) (preferably 100 nM, 300 nM, 500 nM, 700 nM, 900 nM, 1 uM, 2.5 uM, 5 uM, 7.5 uM, 10 uM, 12.5 uM, 15 uM, 17.5 uM, 20 uM or 22 uM) and 0.05-0.95 uM AM580 (Selleck) (with an optimal concentration of 0.5 uM) (preferably 0.08 uM, 0.09 uM, 0.1 uM, 0.2 uM, 0.3 uM, 0.5 uM, 0.6 uM, 0.7 uM, 0.8 uM, 0.9 uM). The cells were cultured until photoreceptor neuron cell were formed. A control experiment was performed by adding 0.5 uM retinoic acid to the NouvNeu medium, hereinafter referred to as RA.
The screening test of AM580 concentration was carried out with reference to Example 2.3, and the expression difference of photoreceptor neuron cells obtained by using different concentrations of AM580 in the AM580 induction method and the LSB induction method was compared. See Table 2 and Table 4 for the details of primers used. […] In combination with the effect of AM580 on the expression of photoreceptor neuron-specific genes shown in FIG. 4, it could be concluded that the concentrations of AM580 used in the present invention are within the range of optimal concentration.
The medium was replaced with fresh medium every 3 days until day 21. The conditions for culture were at 37° C., 5% CO2 (Panasonic, MCO-18AC). After the induction was completed, the samples in experimental group and control group were respectively identified by immunofluorescence staining as follows: cells were fixed with 4% paraformaldehyde at room temperature for 40 minutes, washed twice with DPBS buffer; then permeabilized with 0.1% Triton X-100 for 5 minutes, washed twice with DPBS buffer; then incubated overnight at 4° C. with DPBS buffer containing 10% horse serum and 0.1% Triton X-100; added with a primary antibody diluted in DPBS buffer containing 2% horse serum and 0.1% Triton X-100, incubated at 37° C. for two hours, and washed three times with DPBS buffer, added with a secondary antibody diluted in DPBS buffer containing 2% horse serum and 0.1% Triton X-100, and then photographed.
Transcription changes of different marker genes during induction from ectoderm cells to photoreceptor neuron cells were detected by Q-PCR. The photoreceptor cells obtained by using the present invention and different concentrations of AM580, and the photoreceptor cells obtained by the RA control induction method were respectively extracted with RNeasy Mini or Micro Kit (QIAGEN) for total RNA, and cDNA was synthesized by […] RNA via SuperScript III First-Strand Synthesis System (Invitrogen). SYBR Premix Ex Taq (TaKaRa) and Thermal Cycler Dice Real Time System (TaKaRa) were used for labeling and reaction of Quantitative PCR, and beta-Actin was used as internal control. All data were analyzed by delta-Ct method. Three replicates were used for each group of experiments, and ANOVA was performed.

On to `[Cl-].[Na+]` [sodium chloride], for which the “osmotic pressure of the culture system versus concentration” value in data set [1] (concentration gradients, FIG. 6a) is “increased linearly”. Also, the “osmotic pressure of the culture system” value in data set [1] (sodium chloride concentration) is reported as over 320 mOsm/kg.
For `Cc1cccc(-c2nn3c(c2-c2ccnc4ccc(C(N)=O)cc24)CCC3)n1` [LY2157299, 4-(2-(6-methylpyridin-2-yl)-5,6-dihydro-4H-pyrrolo[1,2-b]pyrazol-3-yl) quinoline-6-carboxamide], in data set [2] (Q-PCR, FIG. 2f), the “ectoderm markers versus concentration” value is “positively correlated”. The “apoptotic markers versus concentration” value in data set [2] (Q-PCR, FIG. 2g) is “positively correlated”. Moreover, the “formation of ectoderm cells (morphology)” value is listed as “uniformly differentiated ectoderm cells” in data set [2] (appropriate concentration, FIG. 2d); “promote the differentiation of ectoderm cells into neural cells” in data set [2] (excessively high concentration, FIG. 2e); “differentiation into mixed cell including ectodermal cells; also recorded: the ectoderm could not be completely formed” in data set [2] (low concentration, FIG. 2c). Besides, the cell apoptosis result in data set [2] (high concentration) is listed as “induced cell apoptosis”. Besides, the “optimal concentration of LY2157299” value in data set [2] (induction of ectoderm cells, screening of different concentrations (FIG. 2)) was determined as 7.5 µM. Besides, the “expression of neural stem cell markers compared with the control method” value in the data set with ectoderm cells [3] (Q-PCR, FIGS. 1e-1f) is “slightly increase the expression of neural stem cell markers”. The “neural stem cell markers after formation of neural rosettes” value in the data set with ectoderm cells [3] (immunofluorescence staining, FIGS. 1a-1d) was “can express neural stem cell markers Pax6 and Nestin”.
With “insulin: component of the NouvNeu-basal base medium”, the “number of cells induced versus concentration” value in data set [4] is listed as “positively correlated”. In addition, the “number of cells compared with the optimal concentration” value in data set [4] (high concentration) is given as “not significantly different”.
For the compound `O=C1O[C@H]([C@@H](O)CO)C(O)=C1O` [vitamin C, L-ascorbic acid], the “number of cells induced versus concentration” value in data set [4] was “positively correlated”. Besides, in data set [4] (high concentration), the “number of cells compared with the optimal concentration” value was “not significantly different” and the “state of cells in the late stage of induction” value is on record as “caused the cells to shed in pieces”.
As for `CC(=O)[C@H]1CC[C@H]2[C@@H]3CCC4=CC(=O)CC[C@]4(C)[C@H]3CC[C@]12C` [progesterone], the “cell proliferation rate versus concentration” value in the data set with photoreceptor cells is given as “positively correlated”.
With `NCCCCN` [putrescine], the “cell proliferation rate versus concentration” value in the data set with photoreceptor cells was “positively correlated”.
Turning to “Optiferrin: component of the NouvNeu-basal base medium (SIGMA)”, in the data set on photoreceptor cells, the “cell proliferation rate versus concentration” value is “positively correlated”.
`CC1(C)CCC(C)(C)c2cc(C(=O)Nc3ccc(C(=O)O)cc3)ccc21` [AM580]: in the data set on ectoderm cells [5] (Q-PCR, FIG. 3f), the “marker PAX6 versus concentration” value is reported as “positively correlated”. Moreover, the “apoptotic markers versus concentration” value in the data set on ectoderm cells [5] (Q-PCR, FIG. 3g) is “positively correlated”. In the data set on ectoderm cells [5] (Q-PCR, compared with RA control, FIG. 4), the “expression of photoreceptor cell-specific marker genes” value is “could induce the expression of multiple photoreceptor cell-specific marker genes, which was not significantly lower than that of the RA control”. The “morphology of differentiated cells” value in the data set on ectoderm cells [5] (appropriate concentration, FIG. 3d) is recorded as “uniformly differentiated photoreceptor cells with short axons”; in the data set on ectoderm cells [5] (excessively high concentration, FIG. 3e), “results in stress in differentiated cells”; in the data set with ectoderm cells [5] (low concentration, FIG. 3c), “differentiation into mixed cells including cortical neurons”. In addition, in the data set on ectoderm cells [5] (concentration too high), the apoptosis entry was “lead to apoptosis”. Moreover, the “protein expression of photoreceptor markers” value with ectoderm cells [5] (fluorescent immunoassay, FIG. 5) is listed as “same protein expression patterns with that in the RA control group”. Besides, in the data set on ectoderm cells [5] (induction of photoreceptor cells, screening of different concentrations (FIG. 3)), the “optimal concentration of AM580” value stood at 0.5 µM.
